Data from paper PMC3827627 (ACS chemical biology, 2013).

Experiments:
RIIβ-S112A holoenzyme = RIIβ-S112A holoenzyme (Rattus norvegicus, UniProt P12369, S112A); assay type: biochemical; details: LiReC assay; for EC50: read-out: RIIβ EC50, RIIβ-S112A holoenzyme, 6 nM PKA holoenzyme, 3 nM TR-IP20
PKA-RIα holoenzyme = PKA-RIα holoenzyme (Bos taurus, UniProt P00514); assay type: biochemical; details: for EC50: read-out: RIα EC50, LiReC assay, 6 nM PKA holoenzyme, 3 nM TR-IP20
Sequence of PKA-RIα holoenzyme (P00514 92-380): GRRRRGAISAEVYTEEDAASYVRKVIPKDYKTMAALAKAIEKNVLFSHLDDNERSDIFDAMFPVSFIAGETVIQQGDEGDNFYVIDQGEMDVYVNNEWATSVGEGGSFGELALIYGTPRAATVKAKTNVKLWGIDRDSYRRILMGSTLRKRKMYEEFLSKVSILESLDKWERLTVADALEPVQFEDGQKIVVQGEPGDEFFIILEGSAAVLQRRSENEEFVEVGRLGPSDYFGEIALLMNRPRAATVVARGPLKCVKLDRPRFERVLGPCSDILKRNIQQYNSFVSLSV

Sequence of RIIβ-S112A holoenzyme (P12369 108-402 S112A): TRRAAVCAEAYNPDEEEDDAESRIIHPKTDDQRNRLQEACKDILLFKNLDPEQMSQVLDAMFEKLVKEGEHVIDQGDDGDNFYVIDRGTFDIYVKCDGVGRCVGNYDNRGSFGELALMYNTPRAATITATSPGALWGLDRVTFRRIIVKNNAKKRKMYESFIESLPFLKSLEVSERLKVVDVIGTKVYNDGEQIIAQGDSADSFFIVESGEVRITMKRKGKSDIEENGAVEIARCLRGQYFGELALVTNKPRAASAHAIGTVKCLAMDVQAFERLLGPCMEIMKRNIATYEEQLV

Which “activation of RIIβ holoenzymes (in words)” value (RIIβ-S112A holoenzyme) does the source give for `CCCC(=O)Nc1ncnc2c1ncn2[C@@H]1O[C@@H]2COP(=O)(O)O[C@H]2[C@H]1O` [6-MB cAMP] here?
Its value is “potent RIIβ activators”.

What about the EC50 (RIIβ-S112A holoenzyme) of the same compound?
Its EC50 is 39 nM.

What about the EC50 (PKA-RIα holoenzyme) of the same compound?
Its EC50 is 140 nM.

`Nc1nc(Cl)nc2c1ncn2[C@@H]1O[C@@H]2COP(=O)(O)OC2[C@@H]1O` (stereo partly shown) [2-Cl cAMP] was tested. Which EC50 (RIIβ-S112A holoenzyme) did it give?
Its EC50 is 45 nM.

And the EC50 (PKA-RIα holoenzyme)?
Its EC50 is 42 nM.

Which results are given for `CCCCCCNc1nc2c(N)ncnc2n1[C@@H]1O[C@@H]2COP(=O)(O)OC2[C@@H]1O` (stereo partly shown) [8-HA cAMP]?
EC50 (RIIβ-S112A holoenzyme): 1150 nM; EC50 (PKA-RIα holoenzyme): 358 nM

What does the source list for `CCCN(CCC)c1ncnc2c1ncn2[C@@H]1O[C@@H]2COP(=O)(O)O[C@H]2[C@H]1O` [HE33]?
EC50 (RIIβ-S112A holoenzyme): 45 nM; fold increase in EC50 relative to cAMP (PKA-RIα holoenzyme; RIα holoenzyme, HE33 vs cAMP): 10 fold; EC50 (PKA-RIα holoenzyme): 414 nM

`O=C(Nc1ncnc2c1ncn2[C@@H]1O[C@@H]2COP(=O)(O)OC2C1O)c1ccccc1` (stereo in doubt) [6-Bnz cAMP] was tested. Which EC50 (RIIβ-S112A holoenzyme) did it give?
The EC50 was 35 nM.

What about the EC50 (PKA-RIα holoenzyme) of the same compound?
The EC50 was 170 nM.

With `Nc1ncnc2c1nc(N1CCCCC1)n2[C@@H]1O[C@@H]2COP(O)(=S)O[C@@H]2C1O` (stereo partly shown) [Sp-8-PIP cAMP] as the compound, how does the EC50 (RIIβ-S112A holoenzyme) read?
The EC50 was 2960 nM.

And the EC50 (PKA-RIα holoenzyme)?
The EC50 was 5050 nM.

For `O=[P@]1(S)OC[C@H]2O[C@@H](n3cnc4cc(Cl)c(Cl)cc43)[C@H](O)[C@@H]2O1` [5,6 DCl BIMPS], which EC50 (RIIβ-S112A holoenzyme) is on record?
Its EC50 is 129 nM.

What about the EC50 (PKA-RIα holoenzyme) of the same compound?
The EC50 was 270 nM.

What does the source list for `Nc1ncnc2c1nc(Cl)n2[C@@H]1O[C@@H]2COP(=O)(O)O[C@H]2[C@H]1O` [8-Cl cAMP]?
EC50 (RIIβ-S112A holoenzyme): 275 nM; EC50 (PKA-RIα holoenzyme): 58 nM

With `Nc1ncnc2c1nc(Sc1ccc(Cl)cc1)n2[C@@H]1O[C@@H]2CO[P@](=O)(S)O[C@H]2[C@H]1O` [Sp-8-CPT cAMP] as the compound, how does the EC50 (RIIβ-S112A holoenzyme) read?
Its EC50 is 96 nM.

And the EC50 (PKA-RIα holoenzyme)?
Its EC50 is 342 nM.

Which EC50 (RIIβ-S112A holoenzyme) does the source give for `NCCCCCCNc1nc2c(N)ncnc2n1[C@@H]1O[C@@H]2COP(=O)(O)O[C@H]2[C@H]1O` [8-AHA cAMP] here?
Its EC50 is 197 nM.

What about the EC50 (PKA-RIα holoenzyme) of the same compound?
The EC50 was 116 nM.

With `O=P1(O)OC[C@H]2O[C@@H](n3cnc4c(Nc5ccccc5)ncnc43)[C@@H](O)C2O1` (stereo partly shown) [6-Phe cAMP] as the compound, how does the EC50 (RIIβ-S112A holoenzyme) read?
Its EC50 is 20 nM.

What about the EC50 (PKA-RIα holoenzyme) of the same compound?
Its EC50 is 92 nM.

Which EC50 (RIIβ-S112A holoenzyme) does the source give for `Nc1ncnc2c1ncn2[C@@H]1O[C@@H]2COP(O)(=S)O[C@H]2[C@H]1O` (stereo partly shown) [Sp cAMP] here?
The EC50 was 2270 nM.

What about the EC50 (PKA-RIα holoenzyme) of the same compound?
Its EC50 is 1590 nM.

How did the EC50 (RIIβ-S112A holoenzyme) turn out when `Nc1ncnc2c1nc(N1CCCCC1)n2[C@@H]1O[C@@H]2COP(=O)(O)O[C@H]2[C@H]1O` [8-PIP cAMP] was run?
Its EC50 is 3950 nM.

What about the EC50 (PKA-RIα holoenzyme) of the same compound?
The EC50 was 1020 nM.

Which EC50 (PKA-RIα holoenzyme) does the source give for 2-OMe cAMP here?
Its EC50 is 5670 nM.

Which results are given for `Nc1ncnc2c1nc(Br)n2[C@@H]1O[C@@H]2COP(O)(=S)O[C@H]2[C@H]1O` (stereo partly shown) [Sp-8-B cAMP]?
EC50 (RIIβ-S112A holoenzyme): 435 nM; EC50 (PKA-RIα holoenzyme): 1360 nM

What does the source list for `O=P1(S)OCC2OC(n3cnc4cc(Cl)c(Cl)cc43)C(O)C2O1` (stereo not shown) [Sp-5,6-DCl BIMPS]?
EC50 (RIIβ-S112A holoenzyme): 83 nM; EC50 (PKA-RIα holoenzyme): 344 nM

`CNc1nc2c(N)ncnc2n1[C@@H]1O[C@@H]2COP(=O)(O)O[C@H]2[C@H]1O` [8-MA cAMP] was tested. Which EC50 (RIIβ-S112A holoenzyme) did it give?
Its EC50 is 223 nM.

What about the EC50 (PKA-RIα holoenzyme) of the same compound?
Its EC50 is 102 nM.

Which results are given for `Nc1ncnc2c1nc(Sc1ccc(Cl)cc1)n2[C@@H]1O[C@@H]2COP(=O)(O)O[C@H]2[C@H]1O` [8-CPT cAMP]?
EC50 (RIIβ-S112A holoenzyme): 149 nM; EC50 (PKA-RIα holoenzyme): 33 nM

Which EC50 (RIIβ-S112A holoenzyme) does the source give for `CC(C)(C)NC(=O)Nc1ncnc2c1ncn2[C@@H]1O[C@@H]2COP(=O)(O)O[C@H]2[C@H]1O` [6-MBC cAMP] here?
The EC50 was 59 nM.

What about the EC50 (PKA-RIα holoenzyme) of the same compound?
Its EC50 is 289 nM.

With `Nc1ncnc2c1nc(Br)n2[C@@H]1O[C@@H]2COP(=O)(O)O[C@H]2[C@H]1O` [8-Br cAMP] as the compound, how does the EC50 (RIIβ-S112A holoenzyme) read?
Its EC50 is 184 nM.

And the EC50 (PKA-RIα holoenzyme)?
The EC50 was 81 nM.

For `Nc1nc2c(ncn2[C@@H]2O[C@@H]3COP(=O)(O)O[C@H]3[C@H]2O)c(=O)[nH]1` [cGMP], which EC50 (RIIβ-S112A holoenzyme) is on record?
Its EC50 is 5080 nM.

What about the EC50 (PKA-RIα holoenzyme) of the same compound?
The EC50 was 15000 nM.
